Experimental data published in patent US20250171459A1, “2-METHYL-4',5'-DIHYDROSPIRO[PIPERIDINE-4,7'-THIENO[2,3-C]PYRAN] DERIVATIVES AS INHIBITORS OF APOL1 AND METHODS OF USING SAME” (Vertex Pharmaceuticals Incorporated, priority 2022, published 2025).

Target: T1, APOL1 (Homo sapiens, UniProt O14791)
T1 sequence (O14791 1-398 S342G/I384M): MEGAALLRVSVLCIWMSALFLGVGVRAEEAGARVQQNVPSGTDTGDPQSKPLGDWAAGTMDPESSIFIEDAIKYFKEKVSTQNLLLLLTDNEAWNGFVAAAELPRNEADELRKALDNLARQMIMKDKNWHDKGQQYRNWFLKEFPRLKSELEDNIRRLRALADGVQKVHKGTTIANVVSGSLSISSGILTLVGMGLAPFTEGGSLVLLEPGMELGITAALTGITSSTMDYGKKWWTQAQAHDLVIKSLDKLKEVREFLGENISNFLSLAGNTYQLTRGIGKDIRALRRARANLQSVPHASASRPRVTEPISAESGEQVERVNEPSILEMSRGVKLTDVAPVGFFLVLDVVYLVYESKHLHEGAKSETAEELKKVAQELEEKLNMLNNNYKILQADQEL
Assay: MultiTox-Fluor Multiplex Cytotoxicity Assay in tet-inducible APOL1 T-REx-HEK293 cells (cell rescue, ratio of dead to live cells)
Type: cell-based
Conditions: tet-inducible transgenic APOL1 T-REx-HEK293 cell lines, 50 ng/mL tet, 24 hours; read-out: IP50 (i.e., IC50 for cell proliferation)
Method in brief: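 T-REx-HEK293 cells with tet-inducible APOL1 were treated with compound (10 μM top, 10-point 3-fold dilution, duplicate) plus 50 ng/mL tetracycline for 24 h at 37° C, in DMEM with 2% tet-free FBS. MultiTox-Fluor protease signals gave a dead/live ratio, normalized to no tet (100% viability) and tet alone (0%).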

Row | Compound | IC50
1 | C[C@H]1C[C@@]2(CCN1Cc1cnn(CCS(C)(=O)=O)c1)OCC(O)c1c2sc(Cl)c1Cl (stereo partly drawn) [Compound 860, (2′S, 7R)-2,3-dichloro-2′-methyl-1′-[[1-(2-methylsulfonylethyl)pyrazol-4-yl]methyl]spiro[4,5-dihydrothieno[2,3-c]pyran-7,4′-piperidine]-4-ol] | < 100 nM
2 | C[C@H]1C[C@@]2(CCN1Cc1cnn(CCS(C)(=O)=O)c1)OCC(O)c1c2sc(Cl)c1Cl (stereo partly drawn) [Compound 861, (2S,4R)-2′,3′-dichloro-2-methyl-1-((1-(2-(methylsulfonyl)ethyl)-1H-pyrazol-4-yl)methyl)-4′l3-spiro[piperidine-4,7′-thieno[3,2-d]pyran]-4′(5′H)-ol] | 100 to 500 nM
3 | C[C@H]1C[C@@]2(CCN1Cc1cn(CCS(C)(=O)=O)nn1)OCC(F)(F)c1cc(Cl)sc12 [Compound 862, (2S,4R)-2′-chloro-4′,4′-difluoro-2-methyl-1-((1-(2-(methylsulfonyl)ethyl)-1H-1,2,3-triazol-4-yl)methyl)-4′,5′-dihydrospiro[piperidine-4,7′-thieno[2,3-c]pyran]] | 100 to 500 nM
4 | C[C@H]1C[C@@]2(CCN1Cc1cn(CCS(C)(=O)=O)nn1)OCC(F)c1cc(Cl)sc12 (stereo partly drawn) [Compound 863, (2S,4R)-2′-chloro-4′-fluoro-2-methyl-1-((1-(2-(methylsulfonyl)ethyl)-1H-1,2,3-triazol-4-yl)methyl)-4′,5′-dihydrospiro[piperidine-4,7′-thieno[2,3-c]pyran]] | 100 to 500 nM
5 | C[C@H]1C[C@@]2(CCN1C1CCCC1O)OCCc1cc(C(F)(F)F)sc12 (stereo partly drawn) [Compound 864, 2-[(2′S,7R)-2′-methyl-2-(trifluoromethyl)spiro[4,5-dihydrothieno[2,3-c]pyran-7,4′-piperidine]-1′-yl]cyclopentanol] | 100 to 500 nM
6 | C[C@H]1C[C@@]2(CCN1C1CCCC1O)OCCc1cc(C(F)(F)F)sc12 (stereo partly drawn) [Compound 865, 2-[(2′S,7R)-2′-methyl-2-(trifluoromethyl)spiro[4,5-dihydrothieno[2,3-c]pyran-7,4′-piperidine]-1′-yl]cyclopentanol] | 100 to 500 nM
7 | C[C@H]1C[C@@]2(CCN1C1COCC1O)OCCc1cc(C(F)(F)F)sc12 (stereo partly drawn) [Compound 866, 4-[(2′S, 7R)-2′-methyl-2-(trifluoromethyl)spiro[4,5-dihydrothieno[2,3-c]pyran-7,4′-piperidine]-1′-yl]tetrahydrofuran-3-ol] | 100 to 500 nM
8 | C[C@H]1C[C@@]2(CCN1C[C@H](O)C(N)=O)OCCc1cc(C(F)(F)F)sc12 [Compound 867, (2S)-2-hydroxy-3-[(2′S,7R)-2′-methyl-2-(trifluoromethyl)spiro[4,5-dihydrothieno[2,3-c]pyran-7,4′-piperidine]-1′-yl]propanamide] | 100 to 500 nM
9 | CNC(=O)[C@@H](O)CN1CC[C@]2(C[C@@H]1C)OCCc1cc(C(F)(F)F)sc12 [Compound 869, (2S)-2-hydroxy-N-methyl-3-[(2′S, 7R)-2′-methyl-2-(trifluoromethyl)spiro[4,5-dihydrothieno[2,3-c]pyran-7,4′-piperidine]-1′-yl]propanamide] | 500 to 1000 nM
10 | C[C@H]1C[C@@]2(CCN1Cc1cn(CCS(C)(=O)=O)nn1)OCCc1cc(C(F)(F)F)sc12 [Compound 870, (2′S, 7R)-2′-methyl-1′-[[1-(2-methylsulfonylethyl)triazol-4-yl]methyl]-2-(trifluoromethyl)spiro[4,5-dihydrothieno[2,3-c]pyran-7,4′-piperidine]] | < 100 nM
11 | C[C@H]1C[C@@]2(CCN1Cc1cn(CCS(C)(=O)=O)nn1)OCCc1c2sc(C(F)(F)F)c1CO [Compound 871, [(2′S, 7R)-2′-methyl-1′-[[1-(2-methylsulfonylethyl)triazol-4-yl]methyl]-2-(trifluoromethyl)spiro[4,5-dihydrothieno[2,3-c]pyran-7,4′-piperidine]-3-yl]methanol] | < 100 nM
12 | C[C@H]1C[C@@]2(CCN1Cc1cnn(CCS(C)(=O)=O)c1)OCCc1c2sc(C(F)(F)F)c1CO [Compound 872, [(2′S,7R)-2′-methyl-1′-[[1-(2-methylsulfonylethyl)pyrazol-4-yl]methyl]-2-(trifluoromethyl)spiro[4,5-dihydrothieno[2,3-c]pyran-7,4′-piperidine]-3-yl]methanol] | < 100 nM
13 | C[C@H]1C[C@@]2(CCN1Cc1cn[nH]c1)OCCc1c2sc(C(F)(F)F)c1CO [Compound 873, [(2′S, 7R)-2′-methyl-1′-(1H-pyrazol-4-ylmethyl)-2-(trifluoromethyl)spiro[4,5-dihydrothieno[2,3-c]pyran-7,4′-piperidine]-3-yl]methanol] | < 100 nM
14 | C[C@H]1C[C@@]2(CCN1Cc1cn[nH]c1)OC[C@@H](O)c1cc(C(F)(F)F)sc12 [Compound 874, (2′S,4S,7R)-2′-methyl-1′-(1H-pyrazol-4-ylmethyl)-2-(trifluoromethyl)spiro[4,5-dihydrothieno[2,3-c]pyran-7,4′-piperidine]-4-ol] | < 100 nM
15 | C[C@H]1C[C@@]2(CCN1Cc1cnn(CCO)c1)OCCc1c2sc(C(F)(F)F)c1CO [Compound 875] | < 100 nM
16 | C[C@H]1C[C@@]2(CCN1Cc1cnn(CC(C)(CO)CO)c1)OCCc1c2sc(C(F)(F)F)c1CO [Compound 876] | < 100 nM
17 | C[C@H]1C[C@@]2(CCN1Cc1ccc3c(c1)n(C)c(=O)n3C)OCCc1c2sc(C(F)(F)F)c1CO [Compound 877] | < 100 nM
18 | CC(O)c1c(C(F)(F)F)sc2c1CCO[C@@]21CCN(Cc2cnn(CCS(C)(=O)=O)c2)[C@@H](C)C1 (some centres unmarked) [Compound 878] | < 100 nM
19 | CC(O)c1c(C(F)(F)F)sc2c1CCO[C@@]21CCN(Cc2cnn(CCS(C)(=O)=O)c2)[C@@H](C)C1 (some centres unmarked) [Compound 879] | < 100 nM
20 | C[C@H]1C[C@@]2(CCN1Cc1cnn(CCS(C)(=O)=O)c1)OCC(O)c1cc(C(F)(F)F)sc12 (some centres unmarked) [Compound 880] | < 100 nM
21 | C[C@H]1C[C@@]2(CCN1Cc1cnn(C3CN(S(C)(=O)=O)C3)c1)OCCc1c2sc(C(F)(F)F)c1CO [Compound 883] | < 100 nM
22 | C[C@H]1C[C@@]2(CCN1Cc1cnn(C3CN(S(C)(=O)=O)C3)c1)OC[C@@H](O)c1cc(C(F)(F)F)sc12 [Compound 884] | < 100 nM
23 | C[C@H]1C[C@@]2(CCN1Cc1cnn(CCO)c1)OC[C@@H](O)c1cc(C(F)(F)F)sc12 [Compound 885] | < 100 nM
24 | C[C@H]1C[C@@]2(CCN1Cc1cnn(CC(=O)N(C)C)c1)OC[C@@H](O)c1cc(C(F)(F)F)sc12 [Compound 886] | < 100 nM
25 | C[C@H]1C[C@@]2(CCN1Cc1cnn(C[C@H](O)C(C)(C)O)c1)OCCc1c2sc(C(F)(F)F)c1CO [Compound 887, (2S)-1-[4-[[(2′S, 7R)-3-(hydroxymethyl)-2′-methyl-2-(trifluoromethyl)spiro[4,5-dihydrothieno[2,3-c]pyran-7,4′-piperidine]-1′-yl]methyl]pyrazol-1-yl]-3-methyl-butane-2,3-diol] | < 100 nM
26 | C[C@H]1C[C@@]2(CCN1Cc1cnn(C[C@@H](O)C(C)(C)O)c1)OCCc1c2sc(C(F)(F)F)c1CO [Compound 888, (2R)-1-[4-[[(2′S, 7R)-3-(hydroxymethyl)-2′-methyl-2-(trifluoromethyl)spiro[4,5-dihydrothieno[2,3-c]pyran-7,4′-piperidine]-1′-yl]methyl]pyrazol-1-yl]-3-methyl-butane-2,3-diol] | < 100 nM
